Experimental data taken from patent US5334595A, “Pyrazoloquinolones as anticancer agents” (priority 1992, dated 1994).
pEC50: −log10 of the molar value. Like-named read-outs stand apart in the source and are kept apart here.

Assays:
human topoisomerase II = target: T1, human topoisomerase II (Homo sapiens, UniProt P11388); assay: Mammalian topoisomerase II inhibition assay (topo II covalently attached to DNA, relative to mAMSA); type: biochemical; settings: read-out: topo II inh. EC50
T1 construct: Topo II was purified from late log phase suspension cultures of HeLa WIS; endogenous in cells; host or cells: HeLa WIS
T1 sequence (P11388 whole entry): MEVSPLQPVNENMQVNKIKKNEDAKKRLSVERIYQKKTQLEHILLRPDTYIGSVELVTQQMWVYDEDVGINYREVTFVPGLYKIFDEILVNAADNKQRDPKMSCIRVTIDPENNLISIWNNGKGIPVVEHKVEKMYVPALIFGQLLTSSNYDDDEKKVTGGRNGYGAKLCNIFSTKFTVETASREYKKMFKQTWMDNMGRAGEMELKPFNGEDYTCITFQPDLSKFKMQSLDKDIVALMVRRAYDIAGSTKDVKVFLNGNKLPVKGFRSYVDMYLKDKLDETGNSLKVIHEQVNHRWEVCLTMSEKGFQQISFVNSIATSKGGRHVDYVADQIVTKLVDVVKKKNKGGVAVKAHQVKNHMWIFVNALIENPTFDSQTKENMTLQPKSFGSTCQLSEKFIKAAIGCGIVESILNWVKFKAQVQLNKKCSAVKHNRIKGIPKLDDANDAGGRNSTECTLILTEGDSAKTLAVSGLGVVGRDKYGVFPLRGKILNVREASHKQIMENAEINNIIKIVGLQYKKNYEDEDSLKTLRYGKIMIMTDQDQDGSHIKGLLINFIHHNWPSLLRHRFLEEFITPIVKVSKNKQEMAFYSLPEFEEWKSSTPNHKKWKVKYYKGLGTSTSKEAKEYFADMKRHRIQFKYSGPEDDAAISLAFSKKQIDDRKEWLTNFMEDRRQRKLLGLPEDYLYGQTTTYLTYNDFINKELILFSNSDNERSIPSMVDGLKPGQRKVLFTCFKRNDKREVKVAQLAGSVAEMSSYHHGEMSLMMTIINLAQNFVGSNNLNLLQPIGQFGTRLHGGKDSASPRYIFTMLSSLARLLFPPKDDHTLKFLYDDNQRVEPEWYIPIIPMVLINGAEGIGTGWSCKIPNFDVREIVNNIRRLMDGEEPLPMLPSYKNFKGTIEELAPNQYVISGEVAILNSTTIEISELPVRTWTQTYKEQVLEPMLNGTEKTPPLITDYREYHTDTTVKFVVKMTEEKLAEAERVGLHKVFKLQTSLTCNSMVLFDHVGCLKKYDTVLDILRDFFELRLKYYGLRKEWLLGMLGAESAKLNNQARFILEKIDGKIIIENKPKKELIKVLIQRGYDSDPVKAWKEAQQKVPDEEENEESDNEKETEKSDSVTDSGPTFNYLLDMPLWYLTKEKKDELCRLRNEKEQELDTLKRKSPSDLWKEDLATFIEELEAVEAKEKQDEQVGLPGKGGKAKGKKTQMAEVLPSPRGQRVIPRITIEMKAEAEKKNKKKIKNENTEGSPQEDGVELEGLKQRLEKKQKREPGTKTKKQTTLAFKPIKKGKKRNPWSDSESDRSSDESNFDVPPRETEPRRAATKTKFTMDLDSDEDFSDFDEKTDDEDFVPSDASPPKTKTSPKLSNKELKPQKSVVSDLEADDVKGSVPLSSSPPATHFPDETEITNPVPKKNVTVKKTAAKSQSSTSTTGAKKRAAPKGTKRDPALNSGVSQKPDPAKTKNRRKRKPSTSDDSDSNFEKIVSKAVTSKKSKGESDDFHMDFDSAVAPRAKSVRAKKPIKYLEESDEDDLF
Text: The inhibition of human topoisomerase II (hereafter topo II) was quantitated by a procedure adapted from that described by Trask et al., EMBO J., 3, 671-676 (1984). The assay quantitates the amount of topo II covalently attached to DNA at equilibrium during a topo II reaction. This assay determines the potential of a compound to stabilize this complex, which potential is closely related to the cytotoxicity of the compound.
Topo II was purified from late log phase suspension cultures of HeLa WIS by an adaptation of the method described by Per et al., Mol. Pharmacol., 32, 17-25 (1987).
Assays (in duplicate) were assembled at 4° C. Assay mix (25 μl) was distributed in Beckman (No. 265270) 1.5 mL microtiter tubes followed by the addition of 5 μl test compound to yield the final concentrations of assay components:
The assay mix including the test compound was incubated for 20 minutes at 37° C. The reaction was terminated at 37° C. by the addition of 3 μl 10% SDS followed by the addition of 266 μl 10 mM Tris-Cl pH 7.5, 20 μg/ml BSA, 20 μg/ml calf thymus DNA, 1% SDS.
A SDS/protein precipitate was formed by the addition of 28 μl 2.5M KCl followed by chilling on ice for a minimum of 10 minutes. The precipitate was collected and washed with a Brandell cell harvester on a GFB glass fiber filter membrane as follows. The contents of the assay tube were drawn up into the harvester. The tube was then rinsed 7× with 10 mM Tris-Cl pH 7.5, 1 mM EDTA and 100 mM KCl. The precipitate was washed with 1 L of a solution of 10 mM Tris-Cl pH 7.5, 1 mMEDTA, 100 mM KCl followed by 1 L of 95% ethyl alcohol and finally 0.5 L 70% of ethyl alcohol (per 48 samples in each case). After drying, CPM was determined by liquid scintillation counting with 5 ml Biofluor (NEN Research Products) or Readisafe (Beckman Instruments Inc.) cocktail.
Preparation of test compound--A stock solution (6 mg/ml) of test compound was prepared either in 0.1N sodium hydroxide or 0.2N hydrogen chloride. This solution then was diluted 1/5 into water and serially thereafter in either 0.02N sodium hydroxide or 0.04N hydrogen chloride, respectively. The stock solution and serial dilution of the test compound was stored at -20° C. prior to testing.
Screening of test compound--As an initial screen, the test compound was tested at a final concentration of 2, 20 and 200 μg/ml. The compound was then retested at a range of concentrations (usually 2-3×steps) bridging their approximate EC50 's, as estimated by the prescreen.
Controls--A solvent control which indicates the base level of topo II-DNA complex formed in the absence of the test compound was included in each test. A control, in which topo II was omitted, was included for each test compound at the highest drug concentration tested.
Reference Agent--A dose response curve with mAMSA at 0.01, 0.08, 0.16, 0.32, 1.0 and 10 μg/ml was included in each test.
The maximal DNA-topo II complex formed is taken as that equal to that formed at the nearly saturating dose of mAMSA (10 μg/ml).

[1] = In vivo antitumor assay, Panc03(sc); set-up: species or system mice; settings: mouse, in vivo
Text: Mice: Inbred: C3H/He and NCR-nu; and Hybrids: B6D2F1 (C57BL/6 females×DBA/2 males, CD2F1 (Balb/c females×DBS/2 males) and B6C3fl (C57BL/6×C3H) were bred at Wayne State University from strains obtained from the Frederick Cancer Research Facility, Frederick, Maryland or purchased from commercial suppliers.
Tumors: Murine Tumor: P388 and an adriamycin-resistant (ADR) subline P388/ADR leukemia and the following transplantable solid tumors of mice were used for in vivo testing: B16 melanoma (B16), pancreatic ductal adenocarcinoma No. 03 (Pane 03), colon adenocarcinoma No. 38 (colo 38), lung carcinoma No. 12 (LC 12), mammary ductal adenocarcinoma No. 16/C (Mam16C) and an adriamycin-resistant subline Mam16C/ADR. Human tumor: A single human tumor, mammary carcinoma MX-1 was used for in vivo testing. All tumors are in the Developmental Therapeutics Program frozen tumor respository, maintained by the Biological Testing Branch, Frederick Maryland. Each has a detailed description, code identification number, and list of references at the National Tumor Repository. Murine tumors were maintained in the mouse strain of origin and were transplanted in the appropriate F1 hydrid (or the strain of origin) for therapy trials. Human mammary carcinoma MX-1 (MX1) was maintained as a subcutaneous implant in either athymic Swiss (Cr: NIH(S)-nu) or athymic random bred (NCR-nu) mice and transplanted in NCR-nu for therapy trials.
Chemotherapy: For pancreatic ductal adenocarcinoma No. 3, colon adenocarcinoma No. 38 (colo 38), lung carcinoma No. 12 LC 12) and both adriamycin-sensitive (RP) and-resistant (ADR) mammary ductal adenocarcinoma No. 16 (Mam16) tumors, bilateral tumor implants were used to help ensure a more uniform tumor burden per mouse (thus reducing the requirement for greater numbers of mice per group). The animals necessary to begin an experiment were pooled, implanted bilaterally s.c. on day zero with 30-60 mg tumor fragments using a 12-gauge trocar, and again pooled before randomization to the various treatment and control groups. Chemotherapy was started within three days after tumor implantation while the number of cells per mouse was relatively small (1×10^7 -1×10^8 cells).
Quantitative end points used to assess antitumor activity included % Increased Life Span (% ILS), Tumor Cell Kill (Log10 kill), and Tumor Growth Inhibition (T/C). Long Term Survivors (45 or 60 day) were excluded from calculations of %ILS and Tumor Cell Kill.
The log10 cell kill was calculated from the following formula: [formula] where T-C is the tumor difference in the median day of death between the treated (T) and the control (C) groups and Td is the tumor doubling time (in days), the latter estimated from the best fit straight line from a log-linear growth plot of the control-group tumors in exponential growth. The conversion of the T-C values to log10 cell kill is possible because the Td for tumors regrowing post-treatment approximated the Td values of the tumors in untreated control mice.
Tumors were measured with a caliper once or twice weekly (as needed) until either tumors exceeded 1600 mg or cure was assured. Tumor weights were estimated from two-dimensional measurements: Tumor Weight (mg)=(a×b^2) / 2, where a and b are the tumor length and width (ram) respectively. Measurements were carried out simultaneously in both treatment and control groups. When the control group tumors reached approximately 750-1500 mg in size (median of group), the median tumor weight of each group was determined (including zeros). The T/C value in percent is an indication of antitumor effectiveness. The % T/C was calculated from the following formula for solid murine tumor models: [formula] where T and C are median tumor weights of the treatment and control groups, respectively. A T/C equal to or less than 42% is considered significant antitumor activity. […]

[2] = conc. achieving 50% of maximal effect of mAMSA, topo II from HeLa cells
[3] = footnote c: bell-shaped dose response curve noted, 50% of maximal effect of mAMSA

Row | Structure (SMILES) | pEC50 (human topoisomerase II; [2]) | MTD ([1]; iv, MTD) | MTD ([1]; MTD) | pEC50 (human topoisomerase II; [3]) | other results
1 | Cc1cc(-c2c(F)cc3c4nn(CCCN(C)C)c(=O)c-4cn(C4CC4)c3c2F)cc(C)n1 [Example 14] | 5.77 | 107 mg/kg |  |  | 
2 | Cc1cc(-c2c(F)cc3c4nn([C@H]5CC[C@H](N(C)C)CC5)c(=O)c-4cn(C4CC4)c3c2F)cc(C)n1 [Example 51b] | 5.36 |  | > 390 mg/kg |  | 
3 | Cc1cc(-c2c(F)cc3c4nn(CCNCCO)c(=O)c-4cn(C4CC4)c3c2F)cc(C)n1 [Example 17] |  |  | 1410 mg/kg | 5.48 | 
4 | Cc1cc(-c2c(F)cc3c4nn([C@H]5CC[C@@H](N)CC5)c(=O)c-4cn(C4CC4)c3c2F)cc(C)n1 [Example 56a, 2-(Cis-4-Aminocyclohexyl)-5-cyclopropyl-6,8-difluoro-2,5-dihydro-7-(2,6-dimethyl-4-pyridinyl)-3H-pyrazolo-[4,3-c]quinolin-3-one] | 6.30 | 110 mg/kg |  |  | 
5 | Cc1cc(-c2c(F)cc3c4nn([C@H]5CC[C@@H](N(C)C)CC5)c(=O)c-4cn(C4CC4)c3c2F)cc(C)n1 [Example 51a] | 5.77 | 63 mg/kg |  |  | 
6 | Cc1cc(-c2c(F)cc3c4nn(CCN(C)C)c(=O)c-4cn(C4CC4)c3c2F)cc(C)n1.O=C(O)/C=C/C(=O)O [Example 1, 5-Cyclopropyl-6,8-difluoro-2,5-dihydro-2-[2-(dimethylamino)-ethyl]-7-(2,6-dimethyl-4-pyridinyl)-3H-pyrazolo[4,3-c]quinolin-3-one (E)-2-butendioate (1:1)] |  |  |  | 5.59 | MTD ([1]; iv, Panc03(sc), drug iv, qd 3,4, exp 1005A, read-out: MTD): 52 mg/kg; MTD ([1]; iv, Panc03(sc), drug iv, qd 3,6,9, exp 1146, read-out: MTD): 34 mg/kg; MTD ([1]; iv, Panc03(sc), drug iv, qd 3, exp 895A, read-out: MTD): 35 mg/kg; MTD ([1]; iv, Panc03(sc), drug iv, qd 3-9, exp 910, read-out: MTD): 45 mg/kg
